Experiments:
Format in all cases: cell-based
[1] = system: NFkB-p65 serine 276 phosphorylation; assay: Western blot of NFkB-p65 phosphorylated at serine 276 in BV2 cells; conditions: 22.0 μg/ml curcuminoid, LPS induction, FIGS. 6 and 7
Procedure: (§1) Western blot analysis was performed in multiple varying formats before optimization was achieved. The BV2 microglia cell line was cultured in Dulbecco's Modified Eagle's Medium (DMEM)—complete medium. The complete medium consisted of DMEM, 1% Ampicillin, and 10% Fetal Bovine Serum (FBS). BV2 microglia cells, at a cell count of approximately 2×10^6, were seeded in each well (6 wells per plate) with 2.0 ml complete medium and cultured overnight in a ThermaForma HepaFilter Series II Co2 Incubator at 37° Celsius. Upon establishing confluence, subconfluent cells were washed out and the wells were prepared with drug pre-treatment after overnight incubation.
(§2) The test drugs (curcuminoids) were procured as follows: curcumin I research standard (03926) (ChromaDex Irvine, Calif. USA) (97.7% purity); curcumin II research standard (04230) (ChromaDex Irvine, Calif. USA) (97.3%); curcumin III research standard (B6938) (Sigma-Aldrich St. Louis, Mo., USA) (97.7% purity); curcumin extract (curcumin I—77.7%, curcumin II—16.9%, curcumin III—0.9%) research standard (03928) (ChromaDex Irvine, Calif. USA) (95.3% purity); and Lipopolysaccharide (LPS) from E. Coli (L2630) (Sigma-Aldrich St. Louis, Mo., USA).
(§3) Curcuminoids are not soluble in aqueous medium due to their hydrophobic characteristic. However, curcuminoid extracts are soluble in polar organic solvents, such as DMSO and acetone. In this Example, each curcuminoid preparation was first dissolved in DMSO. DMSO was used in the drug preparation at 0.2%. The drug/DMSO solution was subsequently dissolved in DMEM to achieve a final drug concentration for each curcuminoid preparation tested—22.0 μg/ml curcuminoid. […]
(§4) Total protein concentration for each fraction was determined using a Bio Rad Protein Assay that is based on the Bradford Assay (dye-binding method). […]
(§5) The targets analyzed in the Western Blot included NFkB-p65 and its nucleocytoplasmic translocation, as well as kinases (including MSK1) and their covalent modifications upstream of and involved in the regulation of NFkB. […]

NFkB-p65 = assay: Western blot of cytoplasmic and nuclear NFkB-p65 (nucleotranslocation) in BV2 cells; conditions: 22.0 μg/ml curcuminoid, LPS induction, FIGS. 4 and 5
Procedure: as §1, §2, §3, §4, §5

[2] = system: MSK1 serine 376 phosphorylation; assay: Western blot of MSK1 phosphorylated at serine 376 in BV2 cells; conditions: 22.0 μg/ml curcuminoid, LPS induction, FIGS. 10 and 11
Procedure: as §1, with “incubation. […]” for “incubation.”
as §4, §5

miRNA148a = assay: RT qPCR of miRNA148a levels in BV2 cells; conditions: 22 μg/ml curcuminoid, 30 min pre-treatment, with or without LPS, FIG. 3
Procedure: Reverse transcriptase (RT) quantitative PCR (RT qPCR) was performed to measure miRNA 148a levels in cells that were treated with curcumin I, II, or III, or a control. More particularly, six-well plates were seeded with BV2 cells at a concentration of about 1.5×10^6 BV2 cells per well. Drug (curcumin I, II, or III) treatment was carried out in the same manner as was executed for the western blot experimentation described in Example 3 below. Ten wells were prepared and, upon confluence, the next day the drug treatment was designed to evaluate basal influence of curcumin extract, curcumin I, curcumin II, curcumin III, as well as each curcumin drug with LPS stimulation. After 30 minutes of incubation with the drug treatment, LPS was used to induce the cells in each well labelled to be induced by LPS.
RNA was ultimately extracted from the cells to determine the levels of miRNA148a. A Qiagen miRNeasy Mini Kit (Cat. No. 217004) was used to extract total RNA along with miRNA. The miRNA was reverse transcribed to cDNA using a gene-specific RT primer and the miScript II RT Kit by Qiagen (Cat. No. 218161). An miRNA148a primer assay was acquired from Qiagen (Cat. No. 00003556). […]

MSK1 = assay: Western blot of cytoplasmic and nuclear MSK1 protein levels in BV2 cells; conditions: 22.0 μg/ml curcuminoid, LPS induction
Procedure: as §1, with “incubation. […]” for “incubation.”
as §4, §5

Structure (SMILES)	inhibition of NFkB-p65 serine 276 phosphorylation [1]	inhibition of NFkB-p65 nucleotranslocation (cytosolic and nuclear NFkB-p65) (NFkB-p65)	inhibition of MSK1 serine 376 phosphorylation [2]	effect on miRNA148a levels (miRNA148a)	effect on MSK1 protein levels in the cytoplasm (MSK1; FIG. 8)	effect on MSK1 protein levels in the nucleus (MSK1; FIG. 9)
COc1cc(/C=C/C(=O)/C=C(O)/C=C/c2ccc(O)c(OC)c2)ccc1O [curcumin I, (1E,6E)-1,7-Bis(4-hydroxy-3-methoxyphenyl)-1,6-heptadiene-3,5-dione]	moderately inhibit	not significantly inhibited	–	–	–	–
COc1cc(/C=C/C(=O)CC(=O)/C=C/c2ccc(O)cc2)ccc1O [curcumin II, (1E,6E)-1-(4-Hydroxy-3-methoxyphenyl)-7-(4-hydroxyphenyl)hepta-1,6-diene-3,5-dione]	moderately inhibit	not significantly inhibited	inhibit	inhibits	–	–
O=C(/C=C/c1ccc(O)cc1)CC(=O)/C=C/c1ccc(O)cc1 [curcumin III, (1E,6E)-1,7-bis(4-hydroxyphenyl)hepta-1,6-diene-3,5-dione]	moderately inhibit	not significantly inhibited	inhibition	significantly increase	significantly inhibited and downregulated	significantly inhibited and downregulated

Reference: US20180353443A1, “CURCUMIN-BASED COMPOSITIONS & METHODS OF USE THEREOF” (priority 2015, published 2018)
